US12473303B2, “4-[[(7-aminopyrazolo[1,5-a]pyrimidin-5-yl)amino methyl]piperidin-3-ol compounds and their therapeutic use” (CARRICK THERAPEUTICS LIMITED, priority 2019, dated 2025)
Entries after “also recorded” stand apart in the source; their conditions may differ. Read-outs that look alike come from different tables or passages of the source.

Experiments:
Cyclin K [1] = test: Western blotting analysis of Cyclin K depletion in cell culture; format: cell-based; conditions: A673 cells; for Cyclin K Degrader Activity: Table 2, 1 μM compound, 2 hours
Description: Western Blotting Analysis of Cyclin K Depletion in Cell Culture A673 cells were incubated for 2 hours with of 1 μM compound in presence or in absence of 10 μM proteasome inhibitor MG132 (Sigma Aldrich) or NAE (NEDD8 activating enzyme) inhibitor […] (Cell Signalling Technologies). Cells were washed 2× with cold Phosphate Buffered Saline (PBS, Sigma Aldrich), followed by the addition of lysis buffer for 15 minutes on ice before harvesting and centrifugation.
Protein content in the cell lysate was assessed by BCA assay (Thermo Fisher). Samples were then prepared with 4× Laemmlli Buffer (Bio-Rad) and heated to 95° C. for 5 minutes. Each sample was loaded onto a Mini-PROTEAN TGX Stain Free Gel (Bio-Rad) at 50 μg protein/well. SDS-PAGE was performed and then protein was transferred onto a PVDF membrane using a Trans-Blot® Turbo™ Midi PVDF Transfer Pack (Bio-Rad. Membranes were blocked in TBS-T (Invitrogen), 5% (w/v) milk powder (Marvel) overnight at 4° C.
Membranes were incubated with anti-CCNK antibody (rabbit) primary antibody (Abcam) and anti-GAPDH antibody (rabbit) in TBS-T for 2 hours. Membranes were then washed three times with TBS-T, before incubation secondary goat anti-rabbit HRP antibody (Cell Signalling Technologies) followed by 3× washing in TBS-T. Blots were imaged using a Chemidoc imager (Bio-Rad). Cyclin K depletion was measured as the observable drop in band intensity in compound treated samples relative to proteasome-inhibitor treated samples, measured by densitometry (Image Lab).

A673 cells = test: Cellular potency in A673 cells; format: cell-based; conditions: for IC50: Homo sapiens, A673 cells
Human CDK12 wt/CycK = Human CDK12 wt/CycK (Homo sapiens (Human), UniProt Q9NYV4); test: Radiometric protein kinase assay (33PanQinase Activity Assay), CDK12; format: biochemical; conditions: for CDK7/CDK12: ratio greater than 1 indicated selectivity for CDK12
Description: (§1) A radiometric protein kinase assay (^33PanQinase® Activity Assay) was used for measuring the kinase activity of the two protein kinases (CDK12/CDK7). All kinase assays were performed in 96-well FlashPlates™ from PerkinElmer (Boston, MA, USA) in a 50 μL reaction volume.
(§2) The reaction cocktail was pipetted in four steps in the following order: • 20 μL of assay buffer (standard buffer) • 5 μL of ATP solution (in H2O) • 5 μL of test compound (in 10% DMSO) • 10 μL of substrate/10 μL of enzyme solution (premixed)
(§3) The reaction mixture was incubated at 30° C. for 60 min and then stopped by the addition of 2% (v/v) H3PO4. Plates were aspirated and washed two times with 200 μL 0.9% (w/v) NaCl. Incorporation of ^33Pi was determined with a microplate scintillation count (Microbeta, Wallac).
(§4) The fitting method used was a least-squares fit.

Human CDK7/CycH/MAT1 = Human CDK7/CycH/MAT1 (Homo sapiens (Human), UniProt P50613); test: Radiometric protein kinase assay (33PanQinase Activity Assay), CDK7; format: biochemical; conditions: Table 1; ATP 3 μM
Description: as §1, §2, §3, §4

Cyclin K [2] = tested on: Cyclin K; set-up: key to Cyclin K Degrader Activity: −: No Cyclin K degradation.; +: Weak Cyclin K degradation.; ++: Moderate Cyclin K degradation.; +++: Strong Cyclin K degradation; conditions: cited from earlier work; for Cyclin K degradation (in words): literature
HeLa and A549 cells = conditions: Table 2, cited from earlier work
[3] = Table 3, ratio >0.9 is an indicator of Cyclin K degradation
[4] = Table 1, ATP 0.3 μM, read-out: CDK12 IC50
[5] = Table 2, CDK12 kinase activity, read-out: Biochemical Potency IC50
[6] = Table 3, CDK12 kinase activity, read-out: Biochemical Potency IC50

Human CDK12 wt/CycK, sequence (Q9NYV4 whole entry): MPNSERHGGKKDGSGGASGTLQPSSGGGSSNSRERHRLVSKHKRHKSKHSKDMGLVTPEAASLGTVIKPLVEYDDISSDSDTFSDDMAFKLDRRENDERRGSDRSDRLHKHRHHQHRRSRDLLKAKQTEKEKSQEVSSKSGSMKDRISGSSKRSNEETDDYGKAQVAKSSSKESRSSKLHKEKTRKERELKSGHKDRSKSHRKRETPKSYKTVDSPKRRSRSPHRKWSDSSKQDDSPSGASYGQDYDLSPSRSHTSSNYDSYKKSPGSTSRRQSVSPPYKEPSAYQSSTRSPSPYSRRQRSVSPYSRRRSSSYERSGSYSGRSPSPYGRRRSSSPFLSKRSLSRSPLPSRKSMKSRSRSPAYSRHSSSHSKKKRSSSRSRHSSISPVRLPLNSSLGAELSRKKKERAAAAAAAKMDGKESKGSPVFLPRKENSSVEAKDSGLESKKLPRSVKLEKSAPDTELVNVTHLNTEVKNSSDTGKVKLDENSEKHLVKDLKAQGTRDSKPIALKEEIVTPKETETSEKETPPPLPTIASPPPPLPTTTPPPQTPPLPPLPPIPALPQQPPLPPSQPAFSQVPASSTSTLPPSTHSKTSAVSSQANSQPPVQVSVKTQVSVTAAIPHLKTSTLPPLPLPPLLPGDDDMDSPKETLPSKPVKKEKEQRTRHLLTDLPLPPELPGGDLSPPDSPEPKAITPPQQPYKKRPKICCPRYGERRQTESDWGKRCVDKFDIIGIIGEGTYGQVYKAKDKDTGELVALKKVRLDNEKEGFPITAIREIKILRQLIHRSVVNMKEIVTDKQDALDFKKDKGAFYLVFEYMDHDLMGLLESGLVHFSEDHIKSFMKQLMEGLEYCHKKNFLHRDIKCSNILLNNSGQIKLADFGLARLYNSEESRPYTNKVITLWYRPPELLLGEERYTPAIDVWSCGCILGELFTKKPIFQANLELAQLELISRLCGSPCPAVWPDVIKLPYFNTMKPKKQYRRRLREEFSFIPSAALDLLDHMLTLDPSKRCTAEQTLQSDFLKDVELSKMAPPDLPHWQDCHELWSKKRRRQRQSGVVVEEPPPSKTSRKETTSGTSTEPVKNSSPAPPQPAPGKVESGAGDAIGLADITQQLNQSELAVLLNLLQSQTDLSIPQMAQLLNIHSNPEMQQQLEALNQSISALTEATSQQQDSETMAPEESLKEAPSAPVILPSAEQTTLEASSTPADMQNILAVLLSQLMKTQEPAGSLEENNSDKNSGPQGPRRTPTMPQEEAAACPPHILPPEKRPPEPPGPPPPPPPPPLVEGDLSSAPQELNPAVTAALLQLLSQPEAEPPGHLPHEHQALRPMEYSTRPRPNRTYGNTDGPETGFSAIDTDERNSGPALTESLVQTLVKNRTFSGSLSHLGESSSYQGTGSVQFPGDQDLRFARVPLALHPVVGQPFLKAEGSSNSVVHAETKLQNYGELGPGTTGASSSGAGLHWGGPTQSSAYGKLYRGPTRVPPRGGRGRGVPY
Human CDK12 wt/CycK, sequence (O75909 whole entry partner): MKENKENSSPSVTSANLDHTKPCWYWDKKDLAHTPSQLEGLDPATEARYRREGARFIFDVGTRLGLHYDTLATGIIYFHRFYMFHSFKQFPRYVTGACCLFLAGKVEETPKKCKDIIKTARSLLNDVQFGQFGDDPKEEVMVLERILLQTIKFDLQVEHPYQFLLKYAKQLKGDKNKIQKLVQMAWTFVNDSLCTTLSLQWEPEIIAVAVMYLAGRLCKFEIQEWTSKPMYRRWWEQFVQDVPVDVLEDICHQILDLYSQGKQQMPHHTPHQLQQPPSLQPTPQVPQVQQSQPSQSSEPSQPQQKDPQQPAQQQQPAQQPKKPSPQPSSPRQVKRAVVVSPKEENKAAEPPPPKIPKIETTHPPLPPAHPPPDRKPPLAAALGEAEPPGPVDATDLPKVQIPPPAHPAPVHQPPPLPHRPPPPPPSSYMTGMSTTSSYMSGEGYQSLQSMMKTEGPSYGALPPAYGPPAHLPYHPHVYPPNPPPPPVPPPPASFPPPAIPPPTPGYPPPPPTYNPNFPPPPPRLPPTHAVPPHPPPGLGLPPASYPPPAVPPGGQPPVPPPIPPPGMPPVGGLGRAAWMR
Human CDK7/CycH/MAT1, sequence (P50613 whole entry): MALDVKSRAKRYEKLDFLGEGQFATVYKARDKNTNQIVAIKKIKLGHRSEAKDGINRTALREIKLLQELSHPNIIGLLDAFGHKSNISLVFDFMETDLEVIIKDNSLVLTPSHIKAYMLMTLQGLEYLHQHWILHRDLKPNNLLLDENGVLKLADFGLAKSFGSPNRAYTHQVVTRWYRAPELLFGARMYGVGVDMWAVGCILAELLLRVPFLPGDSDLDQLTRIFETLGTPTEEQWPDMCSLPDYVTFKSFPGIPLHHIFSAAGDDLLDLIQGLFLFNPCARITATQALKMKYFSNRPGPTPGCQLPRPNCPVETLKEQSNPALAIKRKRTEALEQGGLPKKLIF
Human CDK7/CycH/MAT1, sequence (P51946 whole entry partner): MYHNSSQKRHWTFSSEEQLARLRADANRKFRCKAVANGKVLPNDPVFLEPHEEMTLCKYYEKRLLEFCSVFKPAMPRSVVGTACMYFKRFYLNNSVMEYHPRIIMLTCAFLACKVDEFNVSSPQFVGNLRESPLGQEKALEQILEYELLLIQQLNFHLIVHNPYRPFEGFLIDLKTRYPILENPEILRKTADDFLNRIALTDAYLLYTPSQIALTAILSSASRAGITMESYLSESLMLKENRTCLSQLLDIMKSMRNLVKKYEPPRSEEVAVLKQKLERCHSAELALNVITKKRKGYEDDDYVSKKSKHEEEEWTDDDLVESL
Human CDK7/CycH/MAT1, sequence (P51948 whole entry partner): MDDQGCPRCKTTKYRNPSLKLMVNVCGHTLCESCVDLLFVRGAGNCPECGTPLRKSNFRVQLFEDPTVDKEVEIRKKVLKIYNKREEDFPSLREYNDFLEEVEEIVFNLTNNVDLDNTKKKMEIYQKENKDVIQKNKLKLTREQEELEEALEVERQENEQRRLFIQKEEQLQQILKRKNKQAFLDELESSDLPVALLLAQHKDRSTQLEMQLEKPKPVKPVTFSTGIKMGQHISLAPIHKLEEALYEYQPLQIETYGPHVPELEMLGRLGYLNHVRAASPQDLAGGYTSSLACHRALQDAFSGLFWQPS

| Structure (SMILES) | IC50 (A673 cells; A673, Table 2) [nM] | IC50 (A673 cells; A673, Table 3) [nM] | IC50 (Human CDK12 wt/CycK; [4]) [nM] | CDK7/CDK12 (Human CDK12 wt/CycK; Table 1) | IC50 (Human CDK12 wt/CycK; [5]) [nM] | IC50 (Human CDK12 wt/CycK; [6]) [nM] | IC50 (Human CDK7/CycH/MAT1) [nM] | Cyclin K Degrader Activity (Cyclin K [1]) | Ratio of Biochemical Potency: Cellular Potency (A673 cells; Table 2) | Ratio of Biochemical Potency: Cellular Potency (A673 cells; [3]) | Cyclin K degradation (in words) (Cyclin K [2]) | IC50 (HeLa and A549 cells; derived from published data in HeLa and A549 cells, read-out: Cellular Potency IC50) [nM] | Ratio of Biochemical Potency: Cellular Potency (HeLa and A549 cells; derived from published data) | Cyclin K Degrader Activity (Cyclin K [2]; Table 2, derived from published data in HeLa and A549 cells) | Cyclin K degradation (in words) (Cyclin K [1]) |
| --- | --- | --- | --- | --- | --- | --- | --- | --- | --- | --- | --- | --- | --- | --- | --- |
| Cc1cccn2cc(CNc3cc(NC[C@H]4CCNC[C@@H]4O)nc4c(C(C)C)cnn34)nc12 [H-APPAMP-004, (3R,4R)-4-(((3-isopropyl-7-(((8-methylimidazo[1,2-a]pyridin-2-yl)methyl)amino)pyrazolo[1,5-a]pyrimidin-5-yl)amino)methyl)piperidin-3-ol] | 8.9 | 12 | 51.7 | 5.90 | 55 | 51 | 305 | ++ | 6.2 | 4.2 |  |  |  |  |  |
| CC[C@H](CO)Nc1nc(NCc2ccc(-c3ccccn3)cc2)c2ncn(C(C)C)c2n1 [CR8] |  |  |  |  |  |  |  |  |  |  | cause Cyclin K degradation |  |  |  |  |
| CN(C)C/C=C/C(=O)Nc1ccc(C(=O)N2CCC[C@@H](Nc3ncc(Cl)c(-c4c[nH]c5ccccc45)n3)C2)cc1 [THZ-531] |  |  |  |  |  |  |  |  |  |  | not cyclin K degraders; also recorded: did not cause cyclin K degradation | 210 | 0.74 | − |  |
| CCc1cnn2c(NCc3ccc[n+]([O-])c3)cc(N3CCCC[C@H]3CCO)nc12 [Dinaciclib, reference compound] |  |  |  |  |  |  |  | − |  |  |  |  |  |  | not cyclin K degraders |
| Cc1cccc2nc(CNc3cc(NC[C@H]4CCNC[C@@H]4O)nc4c(C5CC5)cnn34)cn12 [H-APPAMP-025, (3R,4R)-4-(((3-cyclopropyl-7-(((5-methylimidazo[1,2-a]pyridin-2-yl)methyl)amino)pyrazolo[1,5-a]pyrimidin-5-yl)amino)methyl)piperidin-3-ol] | 1.5 | 1.5 | 36 | 9.3 | 36 | 36 | 334 | +++ | 23 | 23 |  |  |  |  |  |
| Cc1cccc2ncc(CNc3cc(NC[C@H]4CCNC[C@@H]4O)nc4c(C(C)C)cnn34)n12 [H-APPAMP-001, (3R,4R)-4-(((3-isopropyl-7-(((5-methylimidazo[1,2-a]pyridin-3-yl)methyl)amino)pyrazolo[1,5-a]pyrimidin-5-yl)amino)methyl)piperidin-3-ol] |  | 123 | 38 | 11.5 |  | 38 | 436 |  |  | 0.3 |  |  |  |  |  |
| COc1cccc2nc(CNc3cc(NC[C@H]4CCNC[C@@H]4O)nc4c(C5CC5)cnn34)cn12 [H-APPAMP-027, (3R,4R)-4-(((3-cyclopropyl-7-(((5-methoxyimidazo[1,2-a]pyridin-2-yl)methyl)amino)pyrazolo[1,5-a]pyrimidin-5-yl)amino)methyl)piperidin-3-ol] |  | 1.6 | 28 | 4.5 |  | 28 | 127 |  |  | 18 |  |  |  |  |  |

Second part, led by results:

| IC50 (A673 cells; A673, Table 2) [nM] | IC50 (A673 cells; A673, Table 3) [nM] | IC50 (Human CDK12 wt/CycK; [4]) [nM] | CDK7/CDK12 (Human CDK12 wt/CycK; Table 1) | IC50 (Human CDK12 wt/CycK; [5]) [nM] | IC50 (Human CDK12 wt/CycK; [6]) [nM] | IC50 (Human CDK7/CycH/MAT1) [nM] | Structure (SMILES) | Cyclin K Degrader Activity (Cyclin K [1]) | Ratio of Biochemical Potency: Cellular Potency (A673 cells; Table 2) | Ratio of Biochemical Potency: Cellular Potency (A673 cells; [3]) | Cyclin K degradation (in words) (Cyclin K [2]) | IC50 (HeLa and A549 cells; derived from published data in HeLa and A549 cells, read-out: Cellular Potency IC50) [nM] | Ratio of Biochemical Potency: Cellular Potency (HeLa and A549 cells; derived from published data) | Cyclin K Degrader Activity (Cyclin K [2]; Table 2, derived from published data in HeLa and A549 cells) | Cyclin K degradation (in words) (Cyclin K [1]) |
| --- | --- | --- | --- | --- | --- | --- | --- | --- | --- | --- | --- | --- | --- | --- | --- |
| 110 | 110 | 18 | 27.6 | 18 | 18 | 496 | O[C@H]1CNCC[C@@H]1CNc1cc(NCc2cn3ccc(-c4ccccc4)cc3n2)n2ncc(C3CC3)c2n1 [H-APPAMP-045, (3R,4R)-4-(((3-cyclopropyl-7-(((7-phenylimidazo[1,2-a]pyridin-2-yl)methyl)amino)pyrazolo[1,5-a]pyrimidin-5-yl)amino)methyl)piperidin-3-ol] | − | 0.16 | 0.16 |  |  |  |  |  |
| 340 | 340 | 21 | 23 | 21 | 21 | 484 | Cc1cc(C)n2cc(CNc3cc(NC[C@H]4CCNC[C@@H]4O)nc4c(C(C)C)cnn34)nc2n1 [H-APPAMP-043, (3R,4R)-4-(((7-(((5,7-dimethylimidazo[1,2-a]pyrimidin-2-yl)methyl)amino)-3-isopropylpyrazolo[1.5-a]pyrimidin-5-yl)amino)methyl)piperidin-3-ol] | − | 0.06 | 0.06 |  |  |  |  |  |
|  | 12.1 | 173 | 0.9 |  | 173 | 152 | CCc1cnn2c(NCc3cn4c(C(F)(F)F)cccc4n3)cc(NC[C@H]3CCNC[C@@H]3O)nc12 [H-APPAMP-034, (3R,4R)-4-(((3-ethyl-7-(((5-(trifluoromethyl)imidazo[1,2-a]pyridin-2-yl)methyl)amino)pyrazolo[1,5-a]pyrimidin-5-yl)amino)methyl)piperidin-3-ol] |  |  | 14 |  |  |  |  |  |
| 44 | 44 | 40 | 6.7 | 40 | 40 | 269 | CC(C)c1cnn2c(NCc3nc4cc(C5CC5)ccn4n3)cc(NC[C@H]3CCNC[C@@H]3O)nc12 [H-APPAMP-044, (3R,4R)-4-(((7-(((7-cyclopropyl-[1,2,4]triazolo[1,5-a]pyridin-2-yl)methyl)amino)-3-isopropylpyrazolo[1,5-a]pyrimidin-5-yl)amino)methyl)piperidin-3-ol] | + | 0.91 | 0.91 |  |  |  |  |  |
|  | 6.1 | 45 | 19.1 |  | 45 | 859 | Cc1cc(C)n2cc(CNc3cc(NC[C@H]4CCNC[C@@H]4O)nc4c(C5CC5)cnn34)nc2c1 [H-APPAMP-032, (3R,4R)-4-(((3-cyclopropyl-7-(((5,7-dimethylimidazo[1,2-a]pyridin-2-yl)methyl)amino)pyrazolo[1,5-a]pyrimidin-5-yl)amino)methyl)piperidin-3-ol] |  |  | 7.4 |  |  |  |  |  |
